Test results reported in patent US9073966B2, “Inhibition of sweat malodor” (Firmenich SA, priority 2005, dated 2015).

Test system: production of (S)-3-methyl-3-sulfanylhexan-1-ol
Test: Screening of potentially malodor-inhibiting compounds: micro-organisms incubated with the Cys-Gly precursor, VSC quantified by GC-AED (procedure of Example 6)
Type: cell-based
Details: for inhibition of production of (S)-3-methyl-3-sulfanylhexan-1-ol: compounds added at 2 μmole
Description: Bacteria isolates were grown aerobically in the appropriate liquid media at 37° C. until OD600=1.0. Cells were harvested by centrifugation at 3000 g, 10 min, washed once with sterile 0.1M phosphate buffer (pH 6.0) and resuspended in fresh buffer. The concentration of individual strains incubated with the sweat precursor was between 1.10^+8 and 1.10^+10 cfu/mL. These freshly prepared bacteria (5 mL), were incubated with 0.1 mL of precursors (5 mg in 10 mL water), (or the sweat fraction, in Example 1 above), at 37° C. pH 6 in a close bottle. After the incubation time 1, 4 and 18 hours, 1 mL of ethyl acetate containing octanethiol and octadecane at 0.02 mg/mL was added and the fermentation broth was centrifuged at 16′000 g. The organic phase was directly injected on a GCSPB1 column coupled to MS and on a GCDMePeBetacdx chiral column coupled to AED detection. These experiments were repeated three times, two blanks were done with the micro-organism without the precursor and one with the precursor in the growing buffer only. No formation of sulfur compound was detected in blanks. The response factor for 1 μL injected of a solution 0.01 mg/mL of octanethiol was calculated in comparison of 1 μL injected of a racemic solution of 0.01 mg/mL of 3-methyl-3-sulphanylhexane-1-ol. The addition of both peaks areas (R/S) gave 280 (+/−5) and octanethiol 303 (+/−3) peaks surface over for injections so we used as an approximation a response factor of 1. Correlation factor for 1 μL injected on both column, were above 0.998 in the range of 1 to 10 ppm of (R/S)-3-methyl-3-sulfanylhexane-1-ol.
Micro-organisms suspended in fresh buffer (Example 5, detailed fermentation protocol) were split in two samples X and Y (negative control) of 5 mL.
[drawing 12] (obtained in Example 9) was added to sample X at a concentration of 2 μmol/L.
The samples comprising suspended micro-organisms and the compound to be screened were incubated at 37° C. for 30 min. […]
After the incubation times of 1, 4 and 18 hours, the increase of malodorous substance (compound 1 in FIG. 2) is briefly determined by sniffing of a trained person. […]
For the internal standard, the response factor for 1 μL injected of a solution 0.01 mg/mL of octanethiol was calculated in comparison of 1 μL injected of a racemic solution of 0.01 mg/mL of 3-methyl-3-sulphanylhexane-1-ol. […]
Stoichiometrically, 0.2 μmol of precursor produces 0.025 mg of VSC in 1 ml ethylacetate, if all precursor is metabolized. If less than […] of VSC is measured in sample X by the AED system, the screened compound, β-Cl-ala-gly, has the ability to reduce the development of malodor. […]

SMILES | inhibition of production of (S)-3-methyl-3-sulfanylhexan-1-ol (procedure of Example 6) [%] | effect on formation of metabolites like compound II upon screening (compound (VII) with Z being NH) | production of (S)-3-methyl-3-sulfanylhexan-1-ol compared to the control (compound added at 2 μmole, procedure of Example 6)
N[C@@H]1C=C(C(=O)NCC(=O)O)SC1 [IIIa, N-{[(4R)-4-amino-4,5-dihydro-2-thienyl]carbonyl}glycine] | 25 | – | –
C#CC[C@H](N)C(=O)NCC(=O)O [Compound VI, N-[(2S)-2-amino-4-pentynoyl]glycine] | 75 | – | –
Nc1cccc(C(=O)NCC(=O)O)c1 [Compound VII, N-[3-amino-benzoyl]glycine] | – | clear and confirmed increase of metabolites | increased production
